Assay results reported in patent US9556217B2, “Amphiphilic compounds” (WISCONSIN ALUMNI RESEARCH FOUNDATION, priority 2012, dated 2017).
Where two headings read alike, the source gives them in different places. Values belong to the molecule of their own block, whether it stands above or below them.

Legend:
[1] = stated in the bR protocol; cited from earlier work
[2] = Critical micelle concentration (fluorescent dye solubilization); format: physicochemical
Source text: The “Critical Micelle Concentration” (CMC) refers to the concentration of a detergent (e.g., an amphiphile as described herein) in an aqueous solution at which the detergent molecules self-assemble into micelles. Below the CMC, detergents are mostly monomeric; above the CMC, micelle concentration increases linearly with detergent concentration. The CMC is dependent upon many factors and is detergent-specific. The CMC of a detergent can be determined experimentally by measuring the solubilization of a water-insoluble dye or fluorophore while varying the concentration of detergent. A CMC may also be determined by measuring the diminution of the surface tension of an aqueous solution as a function of detergent concentration (CMCs determined by either method correlate with each other). The CMC is determined by extrapolating the plot of solubilization vs. concentration (or surface tension vs. concentration) in the two linear regions above and below the CMC. Where the two lines intersect is the CMC. The CMC can also be determined by the method of Nugebauer, J. M. (1990), Methods in Enzymology, 182:239-253.
The four compounds were readily prepared on a multi-gram scale (see Examples 1 and 2 below, and FIGS. 13-15), as is necessary if they are to serve as research tools. All four are highly soluble in aqueous solution (>20 wt %) and have relatively low critical micelle concentrations (CMC; determined by fluorescent dye solubilization).

[3] = Hydrodynamic radius of micelles by dynamic light scattering; format: physicochemical; conditions: Mean ± SD, n = 5
Source text: These values are somewhat smaller than the CMC of DDM, which indicates a strong tendency of the new agents to self-assemble, and which can be advantageous for IMP handling because detrimental levels of non-micellar amphiphile can be avoided. Table 1 provides the hydrodynamic radius (Rh) of the micelles formed by each amphiphile, as determined by dynamic light scattering (DLS). The micelles formed by GLC amphiphiles are slightly smaller than those formed by DDM, while the micelles formed by GDN are slightly larger.

[4] = target: T1, wild type β2AR (β2AR WT) (Homo sapiens, UniProt P07550); assay: β2AR WT activity after extraction ([3H]-dihydroalprenolol binding); format: biochemical
T1 construct: made in house; host or cells: Sf9 insect cells (baculovirus); lysed cells and membranes extracted directly with amphiphile
T1 sequence (P07550 whole entry): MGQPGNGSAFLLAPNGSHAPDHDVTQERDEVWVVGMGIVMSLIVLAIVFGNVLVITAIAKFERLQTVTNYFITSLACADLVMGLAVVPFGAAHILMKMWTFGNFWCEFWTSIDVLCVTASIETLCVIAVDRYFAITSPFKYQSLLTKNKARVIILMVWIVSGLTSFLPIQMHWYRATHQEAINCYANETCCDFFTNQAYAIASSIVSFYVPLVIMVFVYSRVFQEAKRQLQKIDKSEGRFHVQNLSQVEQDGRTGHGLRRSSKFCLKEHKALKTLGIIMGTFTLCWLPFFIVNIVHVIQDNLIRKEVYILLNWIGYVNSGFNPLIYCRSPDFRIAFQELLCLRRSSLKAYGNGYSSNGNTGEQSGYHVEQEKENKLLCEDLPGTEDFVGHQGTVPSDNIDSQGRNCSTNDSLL
Procedure: In the examples discussed above, conventional detergents such as DDM were used to extract IMPs from the membrane, and then in most cases the solution of detergent-solubilized protein was diluted with amphiphile-containing solutions to evaluate the new agents. With this approach it is possible that the small amount of residual conventional detergent could affect protein stability. To exclude this possibility, GLC-3 and GDN were used to extract wild type β2AR (β2AR WT) (Kobilka, Trends in Pharmacological Sciences 2011, 32, 213-218) from the membrane. Receptor activity was measured via a binding assay involving the antagonist [^3H]-dihydroalprenolol. […] GDN is therefore highly suitable for GPCR extraction.
(§1) A gene encoding amino-terminally FLAG epitope tagged β2AR was expressed in Sf9 cells by baculovirus, with no ligand present during culture. Cells were infected at a density of 4×10^6 cells/mL and then cultured for 48 hours prior to harvesting by centrifugation. Cells were resuspended and lysed by osmotic shock with a low ionic strength buffer (20 mM Tris pH 7.5, 1 mM EDTA). The lysed cells were aliquoted 35 mg per aliquot, then frozen. For extraction tests, 300 μL of solubilization buffer (20 mM HEPES pH 7.5, 100 mM NaCl) containing each amphiphile was added to each aliquot, which was then homogenized by pipet followed by grinding with a glass dounce tissue homogenizer. After two-hour incubation at 4° C., samples were centrifuged at maximum speed in a tabletop microcentrifuge to pellet insoluble material. Supernatant was removed and assayed for protein concentration by DC protein assay (Bio-Rad).
The amount of functional receptor was quantified by incubation for 1 hour with 10 nM 3H dihydroalprenolol. Samples were then separated by gel filtration over G-50 resin and radioactivity was quantified by liquid scintillation. Nonspecific binding was measured in the presence of 10 μM alprenolol. Assays were performed in triplicate at time points indicated. G-50 filtration was performed in buffer containing 20 mM HEPES pH 7.5, 100 mM NaCl, 10-fold CMC of the detergent tested. All binding assays were performed with ice cold buffers.

[5] = tested on: δ-opioid receptor-T4L fusion (δOR-T4L); assay: δOR-T4L activity after solubilization ([3H]-diprenorphine binding); format: biochemical; conditions: extracted with 1.0 wt % of amphiphile
Source text: We turned to a δ-opioid receptor-T4L fusion (δOR-T4L), another GPCR, to compare GDN with the recently reported amphiphile MNG-3 (P. S. Chae, et al., Nat. Methods 2010, 7, 1003-1008), which has proven to be essential for crystallization of several other GPCR constructs (Rasmussen, et al., Nature 2011, 469, 236-240; Rosenbaum, et al., Nature 2011, 469, 175-180; Rasmussen, et al., Nature 2011, 477, 540-541; Kruse, et al., Nature 2012, 482, 552-556; Haga, et al., Nature 2012, 482, 547-551). […] The ability of the new amphiphiles to stabilize membrane proteins thus allows for the ability to perform analyses and structural studies that could not be performed with other detergents such as DDM because harsher detergents (e.g., DDM) can remove important lipid moieties from the proteins, causing them to denature and rapidly loose activity.
FLAG epitope tagged δOR-T4L was expressed in Sf9 insect cells using baculovirus particles generated by the pFastBac vector system (Invitrogen). Insect cells were infected and cultured as for the β2AR and cells were lysed by osmotic shock as done for cells expressing β2AR. Lysed cells were used for extraction tests by adding 40 mg of cells to 200 μL of solubilization buffer (20 mM HEPES pH 7.5, 100 mM NaCl) containing each amphiphile. […] The amount of functional receptor after solubilization was quantified by incubation for 1 hour with 10 nM 3H diprenorphine. […]

[6] = target: T2, CMP-Sia fusion protein bearing green fluorescent protein (GFP) (Mus musculus, UniProt Q61420); assay: CMP-Sia-GFP fusion solubilization (fluorescence); conditions: 1 wt %, 1 hr at 4° C., total fluorescence
T2 construct: made in house; host or cells: Saccharomyces cerevisiae FGY217
Procedure: (§2) The favorable MelB extraction performance of GDN led to the examination of this amphiphile for extraction of other IMPs. […] DDM and GDN were used to extract a CMP-Sia fusion protein bearing green fluorescent protein (GFP) at the C-terminus, after expression in Saccharomyces cerevisiae; the amount of solubilized protein was estimated by total fluorescence. GDN (2 wt %), DDM (1 wt %) and OG (1 wt %) gave ˜70%, ˜80% and ˜50% extraction yields, respectively.
(§3) The procedure was performed according to the protocol reported by Chae and coworkers (Nat. Methods 2010, 7, 1003-1008).
CMP-Sia was expressed as a fusion protein with a C-terminal GFP in FGY217 Saccharomyces cerevisiae cells. Cell lysis was conducted by using a cell disrupter (Constant Systems) and the protein samples were subjected to centrifugation at 15,000 g for 10 mins to remove unbroken cells and debris. Subsequently, the membranes were harvested by ultracentrifugation at 150,000 g for 45 min. The membranes were resuspended in 50 mM Tris-HCl (pH 7.6), 1 mM EDTA, 0.6 M sorbitol and the protein concentration was estimated using a BCA kit (Pierce). The membranes were incubated with OG or DDM at 1.0%, or GDN at 2.0% for 1 hr at 4° C. A fluorescence value was measured for each sample before and after ultracentrifugation at 150,000 g for 1 h. The solubilization efficiency was calculated via the fluorescence measurements of the soluble supernatant/the total sample.

[7] = target: T3, β2AR WT (Homo sapiens, UniProt P07550); assay: Extraction of β2AR WT from insect cell membranes; conditions: 1 wt %; western blotting
T3 construct: made in house; host or cells: Sf9 insect cells (baculovirus); lysed cells and membranes extracted directly with amphiphile
T3 sequence (P07550 whole entry): as above
Procedure: as §2, §3
as §1, with “Supernatant was removed and assayed for protein concentration by DC protein assay (Bio-Rad).” left out

SMILES: CCCCCCCCS[C@@H]1O[C@H](CO)[C@@H](O)[C@H](O)[C@H]1O [OTG, octyl-β-D-thioglucoside]
CMC [1]: 0.28 wt %

SMILES: CO[C@@H]1CC[C@@]2(C)[C@H](CC[C@@H]3[C@@H]2CC[C@]2(C)C(C(C)CCCC(CO[C@@H]4OC(CO)C(O[C@@H]5OC(CO)[C@@H](O)[C@H](O)C5O)[C@@H](O)C4O)CO[C@@H]4OC(CO)[C@@H](O[C@H]5OC(CO)[C@@H](O)[C@H](O)C5O)[C@H](O)C4O)CC[C@@H]32)C1 (stereo partly drawn) [GLC-3]
CMC [2]: ~7.1 µM
CMC (wt %) [2]: ~0.00077 wt %
Rh (nm), hydrodynamic radius of micelles [3]: 3.27 ± 0.08 nm
β2AR WT initial activity ([4]; extracted with 1 wt % or 2 wt % amphiphile, [3H]-dihydroalprenolol binding): initial activity similar to that of DDM
β2AR WT activity over 72 hours ([4]; solubilized samples stored at 4° C.): activity was maintained over 72 hours

SMILES: CCCCCCCCCCC(CCCCCCCCCC)(CO[C@@H]1O[C@H](CO)[C@@H](O[C@H]2O[C@H](CO)[C@@H](O)[C@H](O)[C@H]2O)[C@H](O)[C@H]1O)CO[C@@H]1O[C@H](CO)[C@@H](O[C@H]2O[C@H](CO)[C@@H](O)[C@H](O)[C@H]2O)[C@H](O)[C@H]1O [MNG-3, reference compound]
δOR-T4L ligand binding activity after solubilization [5]: higher activity than DDM-solubilized δOR-T4L

SMILES: CO[C@@H]1CC[C@@]2(C)[C@H](CC[C@@H]3[C@@H]2CC[C@]2(C)[C@@H]([C@H](C)CCC(=O)NC(CO[C@@H]4OC(CO)C(O[C@@H]5OC(CO)[C@@H](O)[C@H](O)C5O)[C@@H](O)C4O)CO[C@@H]4OC(CO)[C@@H](O[C@H]5OC(CO)[C@@H](O)[C@H](O)C5O)[C@H](O)C4O)CC[C@@H]32)C1 (stereo partly drawn) [GLC-1]
CMC [2]: ~52 µM
CMC (wt %) [2]: ~0.006 wt %
Rh (nm), hydrodynamic radius of micelles [3]: 3.22 ± 0.03 nm

CMP-Sia-GFP extraction yield [6]: ~50%
SMILES: CCCCCCCCO[C@@H]1O[C@H](CO)[C@@H](O)[C@H](O)[C@H]1O [OG, octyl-β-D-glucoside, reference compound]
β2AR WT detected after extraction [7]: only a very small amount of β2AR WT was detected
